The record followed here is PubChem BioAssay AID624369 (Broad Institute, 2012).

Inconclusive results are not listed. Activity calls are given as the source filed them.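 How the source made its calls: active means fitted curve crosses a set inhibition level at a dose up to twice the top tested dose; inconclusive means flat curve with moderate inhibition, or an unreliable curve fit; inactive means the rest, including signal rising instead of falling.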

The assay in a line: inhibitors of TNFa-stimulated NF-kB luciferase reporter, dose response, selectivity assay for EBV LMP1 NF-kB inhibitor project, HEK293 LMP1 reporter cells, dry powder, set 2 (AID 624369). The conditions noted are these: HEK293 LMP1 TES2 NF-kB luciferase reporter, 16 h. (In general: In a reporter assay the amount or activity of a reporter protein is the signal.)

As to `C[C@@H](NC(=O)C[C@H]1C=C[C@@H](NC(=O)Cc2ccccn2)[C@@H](CO)O1)c1ccccc1`, the activity change, negative = inhibition (at 35 µM (top of the series)) is -2.43% (inactive).

With `C[C@@H]1CN([C@H](C)CO)C(=O)c2c(c3ccccc3n2C)-c2ccccc2CO[C@@H]1CN(C)C(=O)Nc1ccc(F)cc1`, for the setting “at 35 µM (top of the series)”, the activity change, negative = inhibition is -1.47% (inactive).

As for `CO[C@H]1CN(C)C(=O)c2ccc(NC(=O)C3CC3)cc2OC[C@H](C)N(C(=O)c2ccccn2)C[C@H]1C`, the activity change, negative = inhibition (at 35 µM (top of the series)) was -5.44% (inactive).

For the compound `O=C(Cc1ccccn1)NCC[C@@H]1CC[C@@H](NC(=O)Nc2ccc(Cl)cc2)[C@H](CO)O1`, the activity change, negative = inhibition (at 35 µM (top of the series)) was 1.95% (inactive).

`C[C@@H]1CN([C@H](C)CO)C(=O)Cc2cc(NC(=O)Cc3ccccc3)ccc2O[C@H]1CN(C)Cc1ccc(C(F)(F)F)cc1`: the activity change, negative = inhibition (at 35 µM (top of the series)) was 2.66% (inactive).

With `O=C(Cc1ccccn1)NCC[C@@H]1CC[C@H](NC(=O)Nc2ccc(Cl)cc2)[C@@H](CO)O1`, for the setting “at 35 µM (top of the series)”, the activity change, negative = inhibition was 0.116% (inactive).

In the case of `Cc1noc(C)c1S(=O)(=O)Nc1ccc2c(c1)C(=O)N([C@H](C)CO)C[C@H](C)[C@H](CN(C)Cc1ccc(C(F)(F)F)cc1)OCCCC[C@@H](C)O2`, the activity change, negative = inhibition (at 35 µM (top of the series)) was 62.1% (inactive).

`COc1cccc(S(=O)(=O)N(C)C[C@@H]2Oc3cc(C4=CCCCC4)ccc3S(=O)(=O)N([C@@H](C)CO)C[C@H]2C)c1`: the activity change, negative = inhibition (at 35 µM (top of the series)) is -6.23% (inactive).

As for `C[C@@H]1CN([C@@H](C)CO)C(=O)c2c(c3ccccc3n2C)-c2ccccc2CO[C@@H]1CN(C)C(=O)Nc1ccc(F)cc1`, under “at 35 µM (top of the series)”, the activity change, negative = inhibition was 3.56% (inactive).

In the case of `O=C(Cc1ccccn1)NCC[C@H]1CC[C@@H](NC(=O)Nc2ccc(Cl)cc2)[C@H](CO)O1`, the activity change, negative = inhibition (at 35 µM (top of the series)) is -8.81% (inactive).

Consider `CO[C@@H]1CN(C)C(=O)c2ccc(NC(C)=O)cc2OC[C@@H](C)N(Cc2ccccc2F)C[C@H]1C`, for which the activity change, negative = inhibition (at 35 µM (top of the series)) was 3.06% (inactive).

In the case of `O=C(Nc1ccc(C(F)(F)F)cc1)Nc1ccc2c(c1)[C@H]1C[C@@H](CC(=O)N3CCc4ccccc4C3)O[C@@H](CO)[C@H]1O2`, the activity change, negative = inhibition (at 35 µM (top of the series)) was 0.365% (inactive).

For `C[C@@H](NC(=O)C[C@@H]1C=C[C@@H](NC(=O)Cc2ccccn2)[C@@H](CO)O1)c1ccccc1`, the activity change, negative = inhibition (at 35 µM (top of the series)) was -4.92% (inactive).

Take `O=C(C[C@@H]1C[C@@H]2c3cc(NS(=O)(=O)c4ccc(F)cc4)ccc3O[C@@H]2[C@H](CO)O1)NC1CCCCC1`: the activity change, negative = inhibition (at 35 µM (top of the series)) was 12.6% (inactive).

Take `C[C@@H]1CN([C@H](C)CO)C(=O)c2c(c3ccccc3n2C)-c2ccccc2CO[C@H]1CN(C)C(=O)Nc1ccc(F)cc1`: where the note is “at 35 µM (top of the series)”, the activity change, negative = inhibition was 30% (inactive).

For the compound `C[C@@H]1CN([C@@H](C)CO)C(=O)Cc2cc(NC(=O)Cc3ccccc3)ccc2O[C@@H]1CN(C)Cc1ccc(C(F)(F)F)cc1`, the activity change, negative = inhibition (at 35 µM (top of the series)) is 26.6% (inactive).

Regarding `COc1ccccc1C(=O)Nc1ccc2c(c1)C(=O)N(C)[C@@H]1CC[C@H](CC(=O)NCCc3ccncc3)O[C@H]1CO2`, under “at 35 µM (top of the series)”, the activity change, negative = inhibition was -5.47% (inactive).

For the compound `COC(=O)C[C@H]1C[C@H]2c3cc(NC(=O)CN(C)C)ccc3O[C@H]2[C@H](CO)O1`, the activity change, negative = inhibition (at 35 µM (top of the series)) is 4.38% (inactive).

As to `C[C@@H]1CN([C@@H](C)CO)C(=O)Cc2cc(NC(=O)Cc3ccccc3)ccc2O[C@H]1CN(C)Cc1ccc(C(F)(F)F)cc1`, for the setting “at 35 µM (top of the series)”, the activity change, negative = inhibition was 29.3% (inactive).

Turning to `O=C(Cc1ccccn1)NCC[C@H]1CC[C@H](NC(=O)Nc2ccc(Cl)cc2)[C@H](CO)O1`, the activity change, negative = inhibition (at 35 µM (top of the series)) is -3.5% (inactive).

In the case of `O=C(C[C@H]1C[C@@H]2c3cc(NS(=O)(=O)c4ccc(F)cc4)ccc3O[C@@H]2[C@H](CO)O1)NC1CCCCC1`, the activity change, negative = inhibition (at 35 µM (top of the series)) is -5.14% (inactive).

For `O=C(Cc1ccccn1)NCC[C@H]1CC[C@@H](NC(=O)Nc2ccc(Cl)cc2)[C@@H](CO)O1`, the activity change, negative = inhibition (at 35 µM (top of the series)) was -6.43% (inactive).

As for `O=C(Cc1ccccn1)NCC[C@@H]1CC[C@H](NC(=O)Nc2ccc(Cl)cc2)[C@H](CO)O1`, the activity change, negative = inhibition (at 35 µM (top of the series)) is 1.35% (inactive).

On to `COc1cccc(S(=O)(=O)N(C)C[C@@H]2Oc3cc(C4=CCCCC4)ccc3S(=O)(=O)N([C@@H](C)CO)C[C@@H]2C)c1`, for which the activity change, negative = inhibition (at 35 µM (top of the series)) was 17.7% (inactive).

As to `CN(C)c1ccc2c(c1)[C@@H]1C[C@@H](CC(=O)NCc3ccc(Oc4ccccc4)cc3)O[C@@H](CO)[C@@H]1O2`, for the setting “at 35 µM (top of the series)”, the activity change, negative = inhibition is -31.8% (inactive).

As to `C[C@H](NC(=O)C[C@@H]1C=C[C@H](NC(=O)Cc2ccccn2)[C@@H](CO)O1)c1ccccc1`, the activity change, negative = inhibition (at 35 µM (top of the series)) is -2.15% (inactive).

`C[C@H](CO)N1C[C@H](C)[C@H](CN(C)Cc2ccc(Oc3ccccc3)cc2)Oc2ccc(NC(=O)CCCN(C)C)cc2C1=O`: under “at 35 µM (top of the series)”, the activity change, negative = inhibition is 20.6% (inactive).

In the case of `C[C@@H](NC(=O)C[C@H]1C=C[C@H](NC(=O)Cc2ccccn2)[C@@H](CO)O1)c1ccccc1`, the activity change, negative = inhibition (at 35 µM (top of the series)) is 0.235% (inactive).

Take `COc1cccc(S(=O)(=O)N(C)C[C@@H]2Oc3cc(C4=CCCCC4)ccc3S(=O)(=O)N([C@H](C)CO)C[C@H]2C)c1`: under “at 35 µM (top of the series)”, the activity change, negative = inhibition is -5.06% (inactive).

Take `CS(=O)(=O)Nc1ccc2c(c1)[C@H]1C[C@@H](CC(=O)NCC3CC3)O[C@@H](CO)[C@H]1O2`: the activity change, negative = inhibition (at 35 µM (top of the series)) was -2.86% (inactive).

For the compound `C[C@H](NC(=O)C[C@@H]1C=C[C@@H](NC(=O)Cc2ccccn2)[C@@H](CO)O1)c1ccccc1`, the activity change, negative = inhibition (at 35 µM (top of the series)) was -1.02% (inactive).

For `C[C@@H](NC(=O)C[C@H]1C=C[C@@H](NC(=O)Cc2ccccn2)[C@H](CO)O1)c1ccccc1`, the activity change, negative = inhibition (at 35 µM (top of the series)) was -3.95% (inactive).

`COc1cccc(S(=O)(=O)N(C)C[C@H]2Oc3cc(C4=CCCCC4)ccc3S(=O)(=O)N([C@H](C)CO)C[C@H]2C)c1`: where the note is “at 35 µM (top of the series)”, the activity change, negative = inhibition is 26.9% (inactive).

Take `Cc1noc(C)c1S(=O)(=O)Nc1ccc2c(c1)C(=O)N([C@@H](C)CO)C[C@H](C)[C@@H](CN(C)Cc1ccc(C(F)(F)F)cc1)OCCCC[C@@H](C)O2`: the activity change, negative = inhibition (at 35 µM (top of the series)) is -1.88% (inactive).

As to `Cc1noc(C)c1S(=O)(=O)Nc1ccc2c(c1)C(=O)N([C@@H](C)CO)C[C@@H](C)[C@@H](CN(C)Cc1ccc(C(F)(F)F)cc1)OCCCC[C@@H](C)O2`, the activity change, negative = inhibition (at 35 µM (top of the series)) is 30.6% (inactive).

As to `C[C@H]1CN([C@@H](C)CO)C(=O)c2c(c3ccccc3n2C)-c2ccccc2CO[C@@H]1CN(C)C(=O)Nc1ccc(F)cc1`, under “at 35 µM (top of the series)”, the activity change, negative = inhibition is 1.28% (inactive).

With `C[C@H](NC(=O)C[C@H]1C=C[C@@H](NC(=O)Cc2ccccn2)[C@H](CO)O1)c1ccccc1`, the activity change, negative = inhibition (at 35 µM (top of the series)) is -0.458% (inactive).

For `O=C(C[C@@H]1C[C@@H]2c3cc(NC(=O)c4cccnc4)ccc3O[C@@H]2[C@H](CO)O1)NCC(F)(F)F`, for the setting “at 35 µM (top of the series)”, the activity change, negative = inhibition was -2.45% (inactive).

`COc1cccc(C#Cc2ccc([C@@H]3[C@H](C#N)N(C(=O)c4ccccn4)[C@H]3CO)cc2)c1`: for the setting “at 35 µM (top of the series)”, the activity change, negative = inhibition is -1.9% (inactive).

`C[C@@H](NC(=O)C[C@H]1C=C[C@H](NC(=O)Cc2ccccn2)[C@H](CO)O1)c1ccccc1`: for the setting “at 35 µM (top of the series)”, the activity change, negative = inhibition is 3.96% (inactive).

`C[C@@H](NC(=O)C[C@@H]1C=C[C@H](NC(=O)Cc2ccccn2)[C@@H](CO)O1)c1ccccc1`: for the setting “at 35 µM (top of the series)”, the activity change, negative = inhibition is 4.33% (inactive).

On to `C[C@H](CO)N1C[C@H](C)[C@@H](CN(C)S(=O)(=O)c2cccc(F)c2)Oc2ncc(C#CC3CCCCC3)cc2C1=O`, for which the activity change, negative = inhibition (at 35 µM (top of the series)) is 1.93% (inactive).

As for `C[C@H](NC(=O)C[C@H]1C=C[C@H](NC(=O)Cc2ccccn2)[C@@H](CO)O1)c1ccccc1`, the activity change, negative = inhibition (at 35 µM (top of the series)) was -2.25% (inactive).

As for `C[C@@H](NC(=O)C[C@@H]1C=C[C@H](NC(=O)Cc2ccccn2)[C@H](CO)O1)c1ccccc1`, the activity change, negative = inhibition (at 35 µM (top of the series)) is -2.15% (inactive).

With `C[C@H](NC(=O)C[C@H]1C=C[C@@H](NC(=O)Cc2ccccn2)[C@@H](CO)O1)c1ccccc1`, for the setting “at 35 µM (top of the series)”, the activity change, negative = inhibition was -2.31% (inactive).

Take `CO[C@H](CN(C)S(=O)(=O)c1cccc(Cl)c1)[C@@H](C)CN([C@H](C)CO)S(=O)(=O)c1ccc(Cl)cc1`: where the note is “at 35 µM (top of the series)”, the activity change, negative = inhibition was -1.32% (inactive).

On to `O=C(Cc1ccccn1)NCC[C@@H]1CC[C@@H](NC(=O)Nc2ccc(Cl)cc2)[C@@H](CO)O1`, for which, where the note is “at 35 µM (top of the series)”, the activity change, negative = inhibition is 2.08% (inactive).

In the case of `COc1cccc(S(=O)(=O)N(C)C[C@H]2Oc3cc(C4=CCCCC4)ccc3S(=O)(=O)N([C@@H](C)CO)C[C@@H]2C)c1`, the activity change, negative = inhibition (at 35 µM (top of the series)) is 12% (inactive).

For the compound `C[C@H](NC(=O)C[C@H]1C[C@@H]2c3cc(NC(=O)c4cccnc4)ccc3O[C@@H]2[C@@H](CO)O1)c1ccccc1`, the activity change, negative = inhibition (at 35 µM (top of the series)) is -8.72% (inactive).

Regarding `COC(=O)C[C@@H]1C[C@@H]2c3cc(NC(=O)CN(C)C)ccc3O[C@@H]2[C@@H](CO)O1`, the activity change, negative = inhibition (at 35 µM (top of the series)) is 4.43% (inactive).

`C[C@H](CO)N1C[C@H](C)[C@H](CN(C)C(=O)NC2CCCCC2)Oc2cc(/C=C/c3ccccc3)ccc2S1(=O)=O`: the activity change, negative = inhibition (at 35 µM (top of the series)) is -10.3% (inactive).

`C[C@H]1CN([C@@H](C)CO)C(=O)Cc2cc(NC(=O)Cc3ccccc3)ccc2O[C@H]1CN(C)Cc1ccc(C(F)(F)F)cc1`: the activity change, negative = inhibition (at 35 µM (top of the series)) was 63.2% (inactive).

Consider `C[C@@H]1CN([C@H](C)CO)C(=O)Cc2cc(NC(=O)Cc3ccccc3)ccc2O[C@@H]1CN(C)Cc1ccc(C(F)(F)F)cc1`, for which the activity change, negative = inhibition (at 16 µM (top of the series)) is 23.7% (inactive).

As to `C[C@H](NC(=O)C[C@@H]1C=C[C@@H](NC(=O)Cc2ccccn2)[C@H](CO)O1)c1ccccc1`, the activity change, negative = inhibition (at 35 µM (top of the series)) is -3.22% (inactive).

With `Cc1noc(C)c1S(=O)(=O)Nc1ccc2c(c1)C(=O)N([C@@H](C)CO)C[C@H](C)[C@H](CN(C)Cc1ccc(C(F)(F)F)cc1)OCCCC[C@@H](C)O2`, for the setting “at 30 µM (top of the series)”, the activity change, negative = inhibition is 83.8% (inactive).

Turning to `O=C(C[C@@H]1C[C@H]2c3cc(NS(=O)(=O)c4ccc(F)cc4)ccc3O[C@H]2[C@@H](CO)O1)NC1CCCCC1`, for the setting “at 35 µM (top of the series)”, the activity change, negative = inhibition is -3.73% (inactive).
